IC50 (inhibition of TNAP activity) data for 55 compounds are collected here from PubChem BioAssay AID493112 (Sanford-Burnham Center for Chemical Genomics, 2011).

Each structure is given as a SMILES string. The source made the active and inactive calls.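 How the source made its calls: active means mean half-maximal activation concentration below 100 µM; inactive means the rest.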 A value given as a limit tells only on which side of the number the result lay.

The experiment deals with Alkaline phosphatase, tissue-nonspecific isozyme (Homo sapiens) (UniProt P05186). The experiment can be described thus: effect of analogs on TNAP activity, SAR follow-up, selectivity assay for human IAP activator project, biochemical, human TNAP (AID 493112). As to conditions: purified TNAP, CDP-Star luminescence, 30 min.
Chain of Alkaline phosphatase, tissue-nonspecific isozyme (Homo sapiens) (P05186 whole entry, looked up): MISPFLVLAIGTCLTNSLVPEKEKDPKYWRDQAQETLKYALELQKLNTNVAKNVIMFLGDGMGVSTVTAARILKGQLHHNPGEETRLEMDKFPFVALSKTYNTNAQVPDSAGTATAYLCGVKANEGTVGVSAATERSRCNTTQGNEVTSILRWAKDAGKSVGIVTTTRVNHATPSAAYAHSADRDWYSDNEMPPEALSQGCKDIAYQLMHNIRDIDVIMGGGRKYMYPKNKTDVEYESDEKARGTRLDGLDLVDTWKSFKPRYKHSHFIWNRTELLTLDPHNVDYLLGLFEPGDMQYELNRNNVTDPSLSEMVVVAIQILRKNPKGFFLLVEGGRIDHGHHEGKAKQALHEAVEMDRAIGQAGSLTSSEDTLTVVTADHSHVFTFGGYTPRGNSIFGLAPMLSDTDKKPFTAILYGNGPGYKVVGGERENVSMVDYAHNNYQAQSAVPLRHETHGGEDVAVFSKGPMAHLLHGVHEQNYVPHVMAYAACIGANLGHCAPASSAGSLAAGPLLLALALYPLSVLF

Consider `COc1cc(/C=N\NC(=O)C(=O)N/N=C/c2cc(OC)c(O)c(OC)c2)cc(OC)c1O`, for which the IC50 (inhibition of TNAP activity) is > 100 µM (inactive). As to `COc1ccc(/C=N/NC(=O)C(=O)N/N=C/c2ccc(OC)c(OC)c2)cc1OC`, the IC50 (inhibition of TNAP activity) is > 100 µM (inactive). `COC(=O)c1ccc(/C=N/NC(=O)C(=O)N/N=C/c2ccc(C(=O)OC)cc2)cc1`: the IC50 (inhibition of TNAP activity) is > 100 µM (inactive). In the case of `O=C(N/N=C/c1c(O)ccc2ccccc12)c1cc(-c2cccs2)[nH]n1`, the IC50 (inhibition of TNAP activity) is > 100 µM (inactive).

Turning to `Cc1cc(C(=O)N/N=C\c2cc(C(C)(C)C)ccc2O)n[nH]1`, the IC50 (inhibition of TNAP activity) is 7.22 µM. As for `CCN(CC)c1ccc(/C=N/NC(=O)C(=O)N/N=C/c2ccc(N(CC)CC)cc2O)c(O)c1`, the IC50 (inhibition of TNAP activity) is > 100 µM (inactive).

For `O=C(NN=Cc1ccccc1)C(=O)NN=Cc1ccccc1`, the IC50 (inhibition of TNAP activity) was 24.5 µM. Turning to `CC(C)Oc1ccccc1/C=N/NC(=O)C(=O)N/N=C/c1ccccc1OC(C)C`, the IC50 (inhibition of TNAP activity) is 54.3 µM. Consider `COc1cc(/C=N/NC(=O)C(=O)N/N=C/c2ccc(O)c(OC)c2)ccc1O`, for which the IC50 (inhibition of TNAP activity) is > 100 µM (inactive). With `O=C(N/N=C\c1cccc(O)c1)C(=O)N/N=C/c1cccc(O)c1`, the IC50 (inhibition of TNAP activity) is > 100 µM (inactive). Take `COc1cc(OC)cc(C(=O)NNC(=O)c2nn(C)c(=O)c3ccccc23)c1`: the IC50 (inhibition of TNAP activity) is 10.9 µM.

On to `COc1cc(OC)c(OC)cc1/C=N/NC(=O)C(=O)N/N=C/c1cc(OC)c(OC)cc1OC`, for which the IC50 (inhibition of TNAP activity) was > 100 µM (inactive).

In the case of `O=C(N/N=C/c1ccccc1O)c1cc(C2CC2)[nH]n1`, the IC50 (inhibition of TNAP activity) was 7.51 µM.

For `O=C(N/N=C/c1ccccc1O)c1n[nH]c2c1CCC2`, the IC50 (inhibition of TNAP activity) is 4.74 µM. For the compound `O=C(N/N=C/c1c(O)ccc2ccccc12)C(=O)N/N=C/c1c(O)ccc2ccccc12`, the IC50 (inhibition of TNAP activity) was > 100 µM (inactive). On to `COc1cc(/C=N/NC(=O)C(=O)N/N=C/c2cc(OC)c(OC)c(OC)c2)cc(OC)c1OC`, for which the IC50 (inhibition of TNAP activity) is > 100 µM (inactive). On to `C/C(=N\NC(=O)c1[nH]nc2c1CCc1ccccc1-2)c1ccccc1O`, for which the IC50 (inhibition of TNAP activity) is 8.78 µM. As for `COc1ccc(-c2cc(C(=O)NN=Cc3c(O)ccc4ccccc34)[nH]n2)cc1`, the figure is > 100 µM (inactive); as for `Cc1cc(C(=O)NN=Cc2cc(Cl)cc([N+](=O)[O-])c2O)n[nH]1`, > 100 µM (inactive); as for `O=C(NNC(=S)NC(=O)c1ccccc1[N+](=O)[O-])c1ccccc1O`, 15.3 µM. On to `Cc1cc(C(=O)NN=Cc2cccc([N+](=O)[O-])c2O)n[nH]1`, for which the IC50 (inhibition of TNAP activity) was > 100 µM (inactive).

Take `COc1cccc(C=NNC(=O)c2cc(-c3cccn3C)n[nH]2)c1O`: the IC50 (inhibition of TNAP activity) is 9.52 µM.

In the case of `COc1ccc(-c2csc(Nc3cccc4ccccc34)n2)cc1F`, the IC50 (inhibition of TNAP activity) was > 100 µM (inactive). Turning to `Cc1ccc(-c2cc(C(=O)NN=Cc3ccccc3O)n[nH]2)o1`, the IC50 (inhibition of TNAP activity) was 6.16 µM. As for `CCCCOc1ccc(/C=N/NC(=O)C(=O)N/N=C/c2ccc(OCCCC)cc2)cc1`, the IC50 (inhibition of TNAP activity) was > 100 µM (inactive). As for `O=C(N/N=C/c1cc(Br)ccc1O)C(=O)N/N=C/c1cc(Br)ccc1O`, the figure is > 100 µM (inactive). Regarding `CC(=O)Nc1ccc(/C=N/NC(=O)C(=O)N/N=C/c2ccc(NC(C)=O)cc2)cc1`, the IC50 (inhibition of TNAP activity) was > 100 µM (inactive). As for `O=C(NN=Cc1c(O)ccc2ccccc12)c1[nH]ncc1Br`, the figure is > 100 µM (inactive).

For the compound `Cn1cccc1-c1cc(C(=O)NN=Cc2cc(Br)ccc2O)[nH]n1`, the IC50 (inhibition of TNAP activity) is 9.38 µM. On to `O=C(N/N=C/c1ccc(O)cc1)C(=O)N/N=C/c1ccc(O)cc1`, for which the IC50 (inhibition of TNAP activity) is > 100 µM (inactive). On to `CCOc1cc(/C=N/NC(=O)C(=O)N/N=C/c2ccc(O)c(OCC)c2)ccc1O`, for which the IC50 (inhibition of TNAP activity) is > 100 µM (inactive).

As to `O=C(CCN1C(=O)/C(=C/c2ccccc2Cl)SC1=S)NNC(=O)c1ccccc1O`, the IC50 (inhibition of TNAP activity) was > 100 µM (inactive). As for `CCOc1cccc(C=NNC(=O)c2cc(-c3cccn3C)n[nH]2)c1O`, the figure is 10.2 µM; as for `CC1C(=O)NN=C1C(=O)NN=Cc1ccc(O)cc1O` (stereo not given), > 100 µM (inactive); as for `CC(=O)Nc1cccc(C(=O)NNC(=O)c2n[nH]c(=O)c3ccccc23)c1`, 10.3 µM. As for `COc1cccc(C=NNC(=O)c2[nH]nc3c2CCc2ccccc2-3)c1O`, the IC50 (inhibition of TNAP activity) was 10.9 µM.

In the case of `CC(C)C(=O)NC(=S)Nc1ccccc1C(=O)Nc1ccccc1`, the IC50 (inhibition of TNAP activity) is 10.4 µM.

For the compound `Cc1cc(C(=O)N/N=C/c2cc(Br)ccc2O)n[nH]1`, the IC50 (inhibition of TNAP activity) was 8.35 µM.

Consider `Cc1ccc(O)c(C=NNC(=O)c2[nH]ncc2Br)c1`, for which the IC50 (inhibition of TNAP activity) was 15.6 µM. Consider `C/C(=N\NC(=O)c1cc(C)[nH]n1)c1ccc2ccccc2c1O`, for which the IC50 (inhibition of TNAP activity) is > 100 µM (inactive). Turning to `O=C(NN=Cc1ccc(O)cc1O)C(=O)NN=Cc1ccc(O)cc1O`, the IC50 (inhibition of TNAP activity) is > 100 µM (inactive). On to `COc1ccc(OC)c(/C=N/NC(=O)C(=O)N/N=C/c2cc(OC)ccc2OC)c1`, for which the IC50 (inhibition of TNAP activity) was 69.5 µM.

Turning to `CN(C)c1ccc(/C=N/NC(=O)C(=O)N/N=C/c2ccc(N(C)C)cc2)cc1`, the IC50 (inhibition of TNAP activity) was > 100 µM (inactive). As for `O=C(N/N=C\c1ccc2c(c1)OCO2)C(=O)N/N=C/c1ccc2c(c1)OCO2`, the figure is > 100 µM (inactive); as for `OC(c1nc2ccc(F)cc2[nH]1)C(O)c1nc2ccc(F)cc2[nH]1` (stereo not given), 7.21 µM.

As for `COc1cccc(C=NNC(=O)C(=O)NN=Cc2cccc(OC)c2OC)c1OC`, the IC50 (inhibition of TNAP activity) is 36.1 µM. As for `CC(=NNC(=O)C(=O)NN=C(C)c1cccc(O)c1)c1cccc(O)c1`, the figure is > 100 µM (inactive). Consider `N#CCOc1ccccc1/C=N/NC(=O)C(=O)N/N=C/c1ccccc1OCC#N`, for which the IC50 (inhibition of TNAP activity) was > 100 µM (inactive). With `O=C(N/N=C/c1cc(Br)ccc1O)c1cc(C2CC2)[nH]n1`, the IC50 (inhibition of TNAP activity) was 8.03 µM. Take `O=C(N/N=C/c1ccc2c(c1)OCO2)C(=O)N/N=C/c1ccc2c(c1)OCO2`: the IC50 (inhibition of TNAP activity) is > 100 µM (inactive). As to `COc1cccc(C=NNC(=O)C2=NNC(=O)C2C)c1O` (stereo not given), the IC50 (inhibition of TNAP activity) is 12.1 µM. As for `CCOc1cccc(C=NNC(=O)c2cc(C3CC3)[nH]n2)c1O`, the figure is 12.2 µM; as for `O=C(NC(=S)NNC(=O)c1ccccc1O)c1ccc(F)cc1`, 11.5 µM.

Regarding `COc1cccc(C=NNC(=O)C(=O)NN=Cc2cccc(OC)c2O)c1O`, the IC50 (inhibition of TNAP activity) is > 100 µM (inactive). Take `O=C(N/N=C/c1ccccc1C(=O)O)C(=O)N/N=C/c1ccccc1C(=O)O`: the IC50 (inhibition of TNAP activity) is 36.2 µM.
